Data as given in patent US20120010272A1, “RNA Interference Mediated Inhibition of Apoptosis Signal-Regulating Kinase 1 (ASK1) Gene Expression Using Short Interfering Nucleic Acid (siNA)” (Merck Sharp & Dohme Corp., priority 2009, published 2012).

Assays:
Format in all cases: cell-based
[1] = tested on: mRNA transcript of human ASK2; test: ASK2 specificity screen: effect of ASK1 siNAs on human ASK2 mRNA in A549 cells; conditions: 1 nM siNA, three independent experiments, mean ± standard deviation
Protocol: A549 cells were plated in all wells of a tissue-culture treated, 96-well plate at a final count of 5,000 cells/well in 100 μL of appropriate culture media. Cells were cultured for 24 hours after plating at 37° C. in the presence of 5% CO2.
After 24 hours, complexes containing siNA and RNAiMax were created as follows. A solution of RNAiMax diluted 33-fold in OPTI-MEM was prepared. In parallel, solutions of the siRNAs for testing were prepared to a final concentration of 12 nM in OPTI-MEM. After incubation of RNAiMax/OPTI-MEM solution at room temperature for 5 min, an equal volume of the siNA solution and the RNAiMax solution were added together for each of the siNAs. […] This solution was incubated at room temperature for 20 minutes. After incubation, 20 uL of the solution was added to each of the relevant wells. The final concentration of siNA in each well was 1 nM and the final volume of RNAiMax in each well was 0.3 uL. The time of incubation with the RNAiMax-siNA complexes was 24 hours.
(§1) RNA was extracted from a 96-well plate using the TaqMan® Gene Expression Cells-to-CT™ Kit (Cat #4399002) with a modified protocol. Briefly, a 60 uL (1 plate) or 110 uL (2 plates) of the Lysis Solution with DNase I was dispensed into each well of the Lysis Buffer Plate (twin.tec full skirt plate). The lysis buffer and stop plates were stored at 4° C. until the cells were washed.
(§2) The plate was spun at 1100 rpm for 5 minutes. The culture medium was aspirated and discarded from the wells of the culture plate. The lysis was performed automatically using a BioMek FX instrument and method. After the Biomek method was completed, the lysis plate was incubated for 2 min. at room temperature. The lysis plate can be stored for 2 hours at 4° C., or at −20° C. or −80° C. for two months.
(§3) Each well of the reverse transcription plate required 10 uL of 2× reverse transcriptase Buffer, 1 uL of 20× reverse transcription enzyme and 2 uL of nuclease-free water. The reverse transcription master mix was prepared by mixing 2× reverse transcription buffer, 20× reverse transcription enzyme mix, and nuclease-free water. 13 uL of the reverse transcription master mix was dispensed into each well of the reverse transcription plate (semi-skirted). A separate reverse transcription plate was prepared for each cell plate. The plate was loaded onto a Biomek NX or Biomek FX Dual-96 and the Biomek method was run. The program is programmed to automatically added 7 uL of lysate from the cell lysis procedure described above into each well of the reverse transcription plate. The plate is sealed and spun on a centrifuge (1000 rpm for 30 seconds) to settle the contents to the bottom of the reverse transcription plate. The plate is placed in a thermocycler at 37° C. for 60 min, 95° C. for 5 min, and 4° C. until the plate is removed from the thermocycler. Upon removal, if not used immediately, the plate was frozen at −20° C.
(§4) A series of probes and primers were used to detect the various mRNA transcripts of the genes of ASK1, ASK2, and GAPDH in human cell lines and ASK1 and GAPDH in mouse cell lines. All Taqman probes and primers for the experiments were supplied as pre-validated sets by ABI (see Table 2).
The assays were performed on an ABI 7900 instrument, according to the manufacturer's instructions. A TaqMan Gene Expression Master Mix (provided in the Cells-to-CT™, Applied Biosystems, Cat #4399002) was used. The PCR reactions were carried out at 50° C. for 2 min, 95° C. for 10 min followed by 40 cycles at 95° C. for 15 secs and 60° C. for 1 min.
The expression level of the gene of interest and % knock-down was calculated using Comparative Ct method:
ΔΔCt=ΔCt(Target siRNA)−ΔCt(NTC)
Relative expression level=2^−ΔΔCt
The non-targeting control siRNA was, unless otherwise indicated, chosen as the value against which to calculate the % knock-down, because it is the most relevant control.
The specificity of these siNAs was also assessed. […]

ASK1 mRNA [2] = test: ASK1 mRNA knock-down by siNA in mouse Hepa1-6 cells (RNAiMax transfection, Taqman RT-PCR); conditions: 10 nM siNA, 24 hrs post-transfection, vs non-targeting control, GAPDH-normalized, mean ± S.D., two experiments
Protocol: Hepal-6 (murine; ATCC cat #CRL-1830): Cells were cultured at 37° C. in the presence of 5% CO2 and grown in Dulbecco's modified Eagle's medium (DMEM) with 4 mM L-glutamine adjusted to contain 1.5 g/L sodium bicarbonate and 4.5 g/L glucose and supplemented with 10% of fetal bovine serum, 100 μg/mL of streptomycin, and 100 U/mL penicillin.
(§5) Cells were plated in all wells of a tissue-culture treated, 96-well plate at a final count of 5000 cells/well (A549 cell line) and 3,500 cells/well (Hepal-6 cell line) in 100 μL of the appropriate culture media. The cells were cultured for 24 hours after plating at 37° C. in the presence of 5% CO2.
(§6) After 24 hours, complexes containing siNA and RNAiMax were created as follows: A solution of RNAiMax diluted 33-fold in OPTI-MEM was prepared. In parallel, solutions of the siNAs for testing were prepared to a final concentration of 120 nM in OPTI-MEM. After incubation of RNAiMax/OPTI-MEM solution at room temperature for 5 min, an equal volume of the siRNA solution and the RNAiMax solution were added together for each of the siNAs.
(§7) This solution was incubated at room temperature for 20 minutes. After incubation, 20 uL of the solution was added to each of the relevant wells. The final concentration of siNA in each well was 10 nM and the final volume of RNAiMax in each well was 0.3 ul.
(§8) The time of incubation with the RNAiMax-siNA complexes was 24 hours and there was no change in media between transfection and harvesting, unless otherwise indicated.
as §1, §2, §3, §4
(§9) The assays were performed on an ABI 7900 instrument, according to the manufacturer's instructions. A TaqMan Gene Expression Master Mix (provided in the Cells-to-CT™, Applied Biosystems, Cat #4399002) was used. […]

ASK1 mRNA [3] = test: ASK1 mRNA knock-down by siNA in human A549 cells (RNAiMax transfection, Taqman RT-PCR); conditions: 12 concentrations 0.083 fM to 30 nM, mean ± S.D.
ASK1 mRNA [4] = test: as above
Protocol: A549 (human; ATCC cat #CCL-185): Cells were cultured at 37° C. in the presence of 5% CO2 and grown in Ham's F12K medium with 2 mM L-glutamine adjusted to contain 1.5 g/L sodium bicarbonate and supplemented with fetal bovine serum at a final concentration of 10%, 100 μg/mL of streptomycin, and 100 U/mL penicillin.
as §5, §6, §7, §8, §1, §2, §3, §4, §9

25376-DC: siNA duplex, sense B GcAccAGAAAuAAuAGAuA TTB, antisense UAUcuAuuAuuucuGGuGcUU (SEQ ID NO: 33/34), human ASK1 target site 2900 (sense GCACCAGAAAUAAUAGAUATT; antisense UAUCUAUUAUUUCUGGUGCUU; chemistry not fully specified)
% KD ASK-2 1 nM [1]: 5 ± 12% | % KD Mouse (ASK1 mRNA [2]): 14 ± 18% | IC50 (ASK1 mRNA [3]): 14 ± 4 pM | % KD Human (ASK1 mRNA [4]; 10 nM siNA, 24 hrs post-transfection, vs non-targeting control, GAPDH-normalized, mean ± S.D., two experiments): 89 ± 1% | % KD ASK-1 mRNA at 10 nM (ASK1 mRNA [4]; 10 nM, mean ± S.D. (Table 5)): 89 ± 1% | % KD ASK-1 10 nM (ASK1 mRNA [4]; 10 nM, two experiments, mean ± standard deviation (Table 6)): 89 ± 1%
